Laboratory results: US10377753B2, “Substituted 4-azaindoles and their use as GluN2B receptor modulators” (Janssen Pharmaceutica NV, priority 2015, dated 2019)
Counter-ions that a name gives are not always drawn.

What follows are compounds tested against cloned human NR1/NR2B ion channels (Homo sapiens (Human), UniProt Q05586+Q13224) (assay: HNR2BC: effects of test articles on cloned human NR1/NR2B ion channels expressed in mammalian cells (FLIPR calcium flux)). Conditions: cloned human NR1/NR2B, Table 5.
cloned human NR1/NR2B ion channels, sequence (Q13224 27-1484, other chains not shown): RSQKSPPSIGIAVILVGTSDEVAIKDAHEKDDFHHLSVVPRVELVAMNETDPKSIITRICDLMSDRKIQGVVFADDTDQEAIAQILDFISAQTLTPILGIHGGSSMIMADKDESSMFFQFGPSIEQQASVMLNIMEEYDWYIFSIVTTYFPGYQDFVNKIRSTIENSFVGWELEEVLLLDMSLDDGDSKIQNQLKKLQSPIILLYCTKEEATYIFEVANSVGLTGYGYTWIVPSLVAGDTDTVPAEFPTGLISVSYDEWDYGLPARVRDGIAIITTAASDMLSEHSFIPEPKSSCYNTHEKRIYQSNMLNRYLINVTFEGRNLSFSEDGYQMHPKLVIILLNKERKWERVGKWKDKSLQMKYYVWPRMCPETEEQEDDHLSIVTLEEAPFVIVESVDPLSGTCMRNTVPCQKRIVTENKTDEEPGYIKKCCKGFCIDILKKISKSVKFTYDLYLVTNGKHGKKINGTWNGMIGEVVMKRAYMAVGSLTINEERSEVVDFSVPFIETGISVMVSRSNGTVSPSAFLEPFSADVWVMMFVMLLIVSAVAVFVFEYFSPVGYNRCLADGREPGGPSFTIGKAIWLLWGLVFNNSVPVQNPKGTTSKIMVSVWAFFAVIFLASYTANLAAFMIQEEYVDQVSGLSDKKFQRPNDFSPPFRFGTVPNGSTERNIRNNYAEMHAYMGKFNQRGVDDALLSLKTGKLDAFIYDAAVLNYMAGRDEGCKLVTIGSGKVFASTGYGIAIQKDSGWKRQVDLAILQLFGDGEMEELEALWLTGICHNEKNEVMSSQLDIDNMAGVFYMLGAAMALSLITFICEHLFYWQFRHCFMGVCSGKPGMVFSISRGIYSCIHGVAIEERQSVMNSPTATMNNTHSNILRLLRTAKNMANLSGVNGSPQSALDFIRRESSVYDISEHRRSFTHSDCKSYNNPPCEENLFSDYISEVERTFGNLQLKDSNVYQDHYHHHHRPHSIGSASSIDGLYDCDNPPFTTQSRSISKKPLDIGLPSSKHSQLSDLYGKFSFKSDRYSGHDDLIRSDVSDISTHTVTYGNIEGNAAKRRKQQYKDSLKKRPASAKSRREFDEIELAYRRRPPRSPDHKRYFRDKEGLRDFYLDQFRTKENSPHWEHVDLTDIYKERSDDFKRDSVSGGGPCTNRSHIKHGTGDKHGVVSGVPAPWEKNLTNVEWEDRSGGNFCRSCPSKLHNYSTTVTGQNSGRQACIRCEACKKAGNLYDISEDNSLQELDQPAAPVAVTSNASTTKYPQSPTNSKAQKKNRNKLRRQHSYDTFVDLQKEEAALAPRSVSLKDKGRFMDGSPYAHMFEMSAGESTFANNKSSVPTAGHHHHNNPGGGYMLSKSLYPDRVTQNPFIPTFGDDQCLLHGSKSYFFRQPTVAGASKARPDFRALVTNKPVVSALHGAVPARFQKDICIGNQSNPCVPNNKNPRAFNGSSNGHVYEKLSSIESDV
Assay type: cell-based
Experimental: HNR2BC: Effects of Test Articles on Cloned Human NR1/NR2B Ion Channels Expressed in Mammalian Cells
NMDA receptors are ion channels that are highly permeable to Ca^2+ ions, rendering it possible to monitor NMDA receptor function using cell-based calcium flux assay. In this assay, co-agonists glutamate and glycine are added to cells heterologously expressing human GluN1/GluN2B NMDA receptors to initiate cellular Ca^2+ influx. The time course of the changes in intracellular calcium is measured using a fluorescent dye and a FLIPR (Fluorometric Imaging Plate Reader) device.
Twenty four hours before measurements, the expression of the NMDA receptors in the stable cell line is induced with Tet-On inducible system in the presence of a non-selective NMDA receptor blocker. On the day of the experiment, cell culture media is carefully washed and the cells are loaded with Calcium 5 Dye Kit (Molecular Devices) in dye loading buffer containing 137 mM NaCl, 4 mM KCl, 2 mM CaCl2, 0.5 mM MgCl2, 10 mM HEPES and 5 mM D-glucose; pH 7.4. After 1 h incubation at the room temperature, the dye is washed away with the assay buffer (137 mM NaCl, 4 mM KCl, 2 mM CaCl2, 0.01 mM EDTA, 10 mM HEPES and 5 mM D-glucose; pH 7.4) In the FLIPR TETRA reader, various concentrations of the test compounds are added to the cells for 5 min while fluorescence is monitored to detect potential agonist activity. Next, co-agonists, glutamate and glycine are added for another 5 minutes. The concentration of glutamate corresponding to ˜EC80 is used to maximize the assay's signal window and ability to detect NMDA receptor antagonists and negative allosteric modulators. A saturating concentration (10 μM) of glycine is also present in the assay. […] The fluorescent signal in the presence of test compounds is quantified and normalized to the signal defined by the appropriate control wells.

SMILES | IC50 [nM] | pIC50
Cc1cc(-c2cnc3ccn(CC4CO4)c3c2)ccc1F (racemic) [Example 180, (R/S)-6-(4-Fluoro-3-methyl-phenyl)-1-(oxiran-2-ylmethyl)pyrrolo[3,2-b]pyridine trifluoroacetate salt] | 794 | –
Cc1cc(-c2cnc3ccn(CC4CCO4)c3c2)ccc1F (racemic) [Example 184, (R/S)-6-(4-Fluoro-3-methyl-phenyl)-1-(oxetan-2-ylmethyl)pyrrolo[3,2-b]pyridine trifluoroacetate salt] | 501 | –
Cc1cc(-c2cnc3ccn(CC(=O)N4CCOC(C)C4)c3c2)ccc1F (racemic) [Example 194, (R/S)-2-[6-(4-Fluoro-3-methyl-phenyl)pyrrolo[3,2-b]pyridin-1-yl]-1-(2-methylmorpholin-4-yl)ethanone trifluoroacetate salt] | 158 | –
CCC1CCCN1C(=O)Cn1ccc2ncc(-c3ccc(F)c(C)c3)cc21 (racemic) [Example 196, (R/S)-1-(2-Ethylpyrrolidin-1-yl)-2-[6-(4-fluoro-3-methyl-phenyl)pyrrolo[3,2-b]pyridin-1-yl]ethanone trifluoroacetate salt] | 1260 | –
COC1CCN(C(=O)Cn2ccc3ncc(-c4ccc(F)c(C)c4)cc32)C1 (racemic) [Example 198, (R/S)-2-[6-(4-Fluoro-3-methyl-phenyl)pyrrolo[3,2-b]pyridin-1-yl]-1-(3-methoxypyrrolidin-1-yl)ethanone trifluoroacetate salt] | 1000 | –
O=C(Cn1ccc2ncc(-c3ccc(F)cc3)cc21)N1CCC(O)C1 (racemic) [Example 218, (R/S)-2-[6-(4-Fluorophenyl)pyrrolo[3,2-b]pyridin-1-yl]-1-(3-hydroxypyrrolidin-1-yl)ethanone] | 398 | –
CC(C)C(O)Cn1ccc2ncc(-c3cc(F)cc(F)c3)cc21 (racemic) [Example 272] | 25.1 | –
Cc1cc(-c2cnc3ccn(CC(C)(O)C4CC4)c3c2)ccc1F (racemic) [Example 275, (R/S)-2-Cyclopropyl-1-[6-(4-fluoro-3-methyl-phenyl)pyrrolo[3,2-b]pyridin-1-yl]propan-2-ol trifluoroacetate salt] | 158 | –
Cc1cc(-c2cnc3ccn(CC(F)C4CC4)c3c2)ccc1F (racemic) [Example 289, (R/S)-1-(2-Cyclopropyl-2-fluoro-ethyl)-6-(4-fluoro-3-methyl-phenyl)pyrrolo[3,2-b]pyridine] | 79.4 | –
Cc1cc(-c2cnc3ccn(C[S+](C)[O-])c3c2)ccc1F (racemic) [Example 331, (R/S)-6-(4-Fluoro-3-methyl-phenyl)-1-(methylsulfinylmethyl)pyrrolo[3,2-b]pyridine] | 3980 | –
O=C(Cn1ccc2ncc(-c3ccc(F)cc3)cc21)N1CC[C@H](F)C1 (single isomer, unassigned) [Example 293, trifluoroacetate salt] | 31.6 | –
O=C(Cn1cc(Cl)c2ncc(-c3ccccc3)cc21)NC1CC1 [Example 1, 2-(3-Chloro-6-phenyl-pyrrolo[3,2-b]pyridin-1-yl)-N-cyclopropyl-acetamide] | 316 | –
O=C(Cn1cc(Cl)c2ncc(-c3ccc(F)cc3)cc21)N1CCC1 [Example 3, 1-(Azetidin-1-yl)-2-[3-chloro-6-(4-fluorophenyl)pyrrolo[3,2-b]pyridin-1-yl]ethanone] | – | 7.6
O=C(Cn1cc(Cl)c2ncc(-c3ccccc3)cc21)N1CCC1 [Example 6, 1-(Azetidin-1-yl)-2-(3-chloro-6-phenyl-pyrrolo[3,2-b]pyridin-1-yl)ethanone] | 50.1 | –
Cc1cccc(-c2cnc3c(Cl)cn(CC(=O)N4CCC4)c3c2)c1 [Example 8, 1-(Azetidin-1-yl)-2-[3-chloro-6-(m-tolyl)pyrrolo[3,2-b]pyridin-1-yl]ethanone] | 31.6 | –
O=C(Cn1cc(Cl)c2ncc(-c3ccc(F)cc3)cc21)N1CCCC1 [Example 9, 2-[3-Chloro-6-(4-fluorophenyl)pyrrolo[3,2-b]pyridin-1-yl]-1-pyrrolidin-1-yl-ethanone] | 63.1 | –
O=C(Cn1cc(Br)c2ncc(-c3ccccc3)cc21)N1CCC1 [Example 11, 1-(Azetidin-1-yl)-2-(3-bromo-6-phenyl-pyrrolo[3,2-b]pyridin-1-yl)ethanone] | 25.1 | –

Continued by falling IC50, values first:

IC50 [nM] | pIC50 | SMILES
2000 | – | CC(NC(=O)Cn1ccc2ncc(-c3ccc(F)cc3)cc21)C(F)(F)F (racemic) [Example 231, (R/S)-2-[6-(4-Fluorophenyl)pyrrolo[3,2-b]pyridin-1-yl]-N-(2,2,2-trifluoro-1-methyl-ethyl)acetamide]
631 | – | Fc1ccc(-c2cnc3ccn(CC4CCCCO4)c3c2)cc1 (racemic) [Example 228, (R/S)-6-(4-Fluorophenyl)-1-(tetrahydropyran-2-ylmethyl)pyrrolo[3,2-b]pyridine trifluoroacetate salt]
398 | – | Cc1cc(-c2cnc3ccn(CC(=O)N4CCCC(C(F)(F)F)C4)c3c2)ccc1F (racemic) [Example 195, (R/S)-2-[6-(4-Fluoro-3-methyl-phenyl)pyrrolo[3,2-b]pyridin-1-yl]-1-[3-(trifluoromethyl)-1-piperidyl]ethanone trifluoroacetate salt]
398 | – | Cc1cc(-c2cnc3ccn(CC(=O)N4CCOCC4C)c3c2)ccc1F (racemic) [Example 210, (R/S)-2-[6-(4-Fluoro-3-methyl-phenyl)pyrrolo[3,2-b]pyridin-1-yl]-1-(3-methylmorpholin-4-yl)ethanone trifluoroacetate salt]
200 | – | Cc1cc(-c2cnc3ccn(CC(=O)N4CCCC(F)C4)c3c2)ccc1F (racemic) [Example 199, (R/S)-2-[6-(4-Fluoro-3-methyl-phenyl)pyrrolo[3,2-b]pyridin-1-yl]-1-(3-fluoro-1-piperidyl)ethanone trifluoroacetate salt]
200 | – | O=C(Cn1cc(Cl)c2ncc(-c3ccccc3)cc21)N1CCOCC1 [Example 5, 2-(3-Chloro-6-phenyl-pyrrolo[3,2-b]pyridin-1-yl)-1-morpholino-ethanone]
158 | – | O=C(Cn1cc(Cl)c2ncc(-c3ccc(F)cc3)cc21)N1CCOCC1 [Example 7, 2-[3-Chloro-6-(4-fluorophenyl)pyrrolo[3,2-b]pyridin-1-yl]-1-morpholino-ethanone]
126 | – | Cc1cc(-c2cnc3ccn(CC(=O)N4CC5CC5C4)c3c2)ccc1F (racemic) [Example 189, (R/S)-1-(3-Azabicyclo[3.1.0]hexan-3-yl)-2-[6-(4-fluoro-3-methyl-phenyl)pyrrolo[3,2-b]pyridin-1-yl]ethanone trifluoroacetate salt]
126 | – | O=C(Cn1cc(Cl)c2ncc(-c3ccc(F)cc3)cc21)NC1CC1 [Example 2, 2-[3-Chloro-6-(4-fluorophenyl)pyrrolo[3,2-b]pyridin-1-yl]-N-cyclopropyl-acetamide]
50.1 | – | O=C(Cn1cc(Cl)c2ncc(-c3ccccc3)cc21)N1CCCC1 [Example 4, 2-(3-Chloro-6-phenyl-pyrrolo[3,2-b]pyridin-1-yl)-1-pyrrolidin-1-yl-ethanone]
50.1 | – | Cc1cccc(-c2cnc3c(Cl)cn(CC(=O)NC4CC4)c3c2)c1 [Example 10, 2-[3-Chloro-6-(m-tolyl)pyrrolo[3,2-b]pyridin-1-yl]-N-cyclopropyl-acetamide]
39.8 | – | Cc1cccc(-c2cnc3c(Cl)cn(CC(=O)N4CCCC4)c3c2)c1 [Example 12, 2-[3-Chloro-6-(m-tolyl)pyrrolo[3,2-b]pyridin-1-yl]-1-pyrrolidin-1-yl-ethanone]
